Where two headings read alike, the source gives them in different places.
What was measured:
in vivo = details: mouse, mortality over 5 days, confidence limits: 95%
Protocol: Acute toxicity: The acute toxicity for oral and intravenous administration was evaluated for CD1 male mice of average weight 20 g. The mortality was recorded over a period of 5 days following the administration of the compounds.

β1 -adrenergic receptors = target: T1, β1 -adrenergic receptors (Rattus norvegicus, UniProt P18090); assay: Studies on isolated organs: antagonism of isoprenaline-induced tachycardia and increase in contractile force in isolated rat auricles (pA2); parameters: species or system rats; details: for Effect on inotropism, ratio of activity to that of metoprolol: isoprenaline contractile force; for Effect on inotropism, ratio of activity to that of metoprolol / Effect on chronotropism, ratio of activity to that of metoprolol: metoprolol = 1.0; for Kb / pA2, effect on chronotropism / pA2, effect on inotropism: 31° C.
T1 construct: from tissue; host or cells: isolated rat auricles (atria)
T1 sequence (P18090 whole entry): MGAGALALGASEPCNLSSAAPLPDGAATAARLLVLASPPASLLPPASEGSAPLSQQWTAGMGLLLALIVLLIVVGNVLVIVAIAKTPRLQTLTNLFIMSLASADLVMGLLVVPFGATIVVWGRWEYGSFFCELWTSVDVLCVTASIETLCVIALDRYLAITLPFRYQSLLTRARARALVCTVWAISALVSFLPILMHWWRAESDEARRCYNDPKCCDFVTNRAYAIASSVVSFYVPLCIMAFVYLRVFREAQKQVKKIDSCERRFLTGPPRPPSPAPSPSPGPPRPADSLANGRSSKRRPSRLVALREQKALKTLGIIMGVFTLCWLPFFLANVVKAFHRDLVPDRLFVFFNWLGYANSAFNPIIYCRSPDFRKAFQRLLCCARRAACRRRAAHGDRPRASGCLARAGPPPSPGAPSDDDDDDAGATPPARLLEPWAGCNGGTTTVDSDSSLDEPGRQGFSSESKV

[1] = intravenous administration, read-out: LD50 intravenous administration
[2] = oral administration, read-out: LD50 oral administration
[3] = isoprenaline increase in contractile force, read-out: pA2, effect on inotropism (converted)
[4] = isoprenaline tachycardia, read-out: pA2, effect on chronotropism (converted)
[5] = isoprenaline increase in contractile force

SMILES	LD50 at 120 h (in vivo; [1])	LD50 at 120 h (in vivo; [2])	Effect on inotropism, ratio of activity to that of metoprolol (β1 -adrenergic receptors)	Kb (β1 -adrenergic receptors; [3])	pA2, effect on chronotropism (β1 -adrenergic receptors; isoprenaline tachycardia)	Effect on chronotropism, ratio of activity to that of metoprolol (β1 -adrenergic receptors; isoprenaline tachycardia)	Kb (β1 -adrenergic receptors; [4])	pA2, effect on inotropism (β1 -adrenergic receptors; [5])
COCCc1ccc(OCC(O)CNC(C)C)cc1 (stereo not shown) [METOPROLOL, 1-[4-(2-methoxy-ethyl)-phenoxy]-3-isopropylamino-propan-2-ol, reference compound]	62 mg/kg	1050 mg/kg	–	–	–	–	–	–
CC(C)NCC(O)COc1ccc(CCSCC2CCC2)cc1 (stereo not shown) [SL D.056, 1-[4-(2-Cyclobutylmethylthio-ethyl)-phenoxy]-3-isopropylamino-propan-2-ol]	–	–	0.09	132 nM	7.11	0.3	–	–
CC(C)NCC(O)COc1ccc(OCCOCC2CC2)cc1 (stereo not shown) [SL D.177, 1-{4-[2-(cyclopropylmethoxy)-ethoxy]-phenoxy}-3-isopropylamino-propan-2-ol]	76 mg/kg	610 mg/kg	1.1	10.7 nM	–	2.8	8.13 nM	–
CC(C)(C)NCC(O)COc1ccc(OCCOCC2CC2)cc1 (stereo not shown) [SL D.178, 1-{4-[2-(Cyclopropylmethoxy)-ethoxy]-phenoxy}-3-t-butylamino-propan-2-ol]	53 mg/kg	445 mg/kg	1.0	11 nM	–	1.4	20 nM	–
CC(C)NCC(O)COc1ccc(CCOCC2CC2)cc1 (stereo not shown) [SL D.212, 1-{4-[2-(Cyclopropylmethoxy)ethyl]-phenoxy}-3-isopropylamino-propan-2-ol]	37 mg/kg	944 mg/kg	–	–	–	–	–	–
CC(C)NCC(O)COc1ccc(COCC2CC2)cc1 (stereo not shown) [SL D.224, 1-[4-(cyclopropylmethoxymethyl)-phenoxy]-3-isopropylamino-propan-2-ol]	88 mg/kg	1400 mg/kg	–	–	–	–	–	–
CC(C)NCC(O)COc1ccc(OCC2CC2)cc1 (stereo not shown) [SL D.230, 1-[4-(Cyclopropylmethoxy)-phenoxy]-3-isopropylamino-propan-2-ol]	48 mg/kg	750 mg/kg	2.1	5.37 nM	–	4.6	5.01 nM	–
CC(C)(C)NCC(O)COc1ccc(OCC2CC2)cc1 (stereo not shown) [SL D.231, 1-[4-(Cyclopropylmethoxy)-phenoxy]-3-t-butylamino-propan-2-ol]	36 mg/kg	1200 mg/kg	0.3	33.9 nM	–	0.8	28.8 nM	–
CC(C)NCC(O)COc1ccc(CCOCC2CCC2)cc1 (stereo not shown) [SL D.254, 1-{4-[2-(Cyclobutylmethoxy)-ethyl]-phenoxy}-3-isopropylamino-propan-2-ol]	28 mg/kg	658 mg/kg	–	–	–	–	–	–
CC(C)NCC(O)COc1ccc(CCOCC2CCCCC2)cc1 (stereo not shown) [SL D.268, 1-{4-[2-(Cyclohexylmethoxy)-ethyl]-phenoxy}-3-isopropylamino-propan-2-ol]	35 mg/kg	–	0.03	398 nM	6.84	0.2	–	–
CC(C)NCC(O)COc1ccc(CCOCC2CCCC2)cc1 (stereo not shown) [SL D.291]	56 mg/kg	–	0.08	148 nM	6.89	0.2	–	–
CC(C)NCC(O)COc1ccc(OCCSCC2CC2)cc1 (stereo not shown) [SL D.299, 1-[4-(2-Cyclopropylmethylthio-ethoxy)-phenoxy]-3-isopropylamino-propan-2-ol]	–	–	0.8	14.8 nM	–	1.3	17.4 nM	–
CC(C)NCC(O)COc1ccc(OCCCC2CC2)cc1 (stereo not shown) [SL D.311, 1-(4-Cyclopropylpropoxy-phenoxy)-3-isopropylamino-propan-2-ol]	71 mg/kg	–	0.2	52.5 nM	–	0.2	91.2 nM	–
CC(CC#N)NCC(O)COc1ccc(CCOCC2CCC2)cc1 (stereo not shown) [SL E.024, 1-[4-(2-Cyclobutylmethoxy-ethyl)-phenoxy]-3-(1-methyl-2-cyano-ethylamino)-propan-2-ol]	–	–	0.02	617 nM	6.47	0.07	–	–
CC(=O)NCCNCC(O)COc1ccc(CCOCC2CCC2)cc1 (stereo not shown) [SL E.025, 1-[4-(2-Cyclobutylmethoxy-ethyl)-phenoxy]-3-(2-acetylamino-ethylamino)-propan-2-ol]	–	–	0.2	–	–	0.6	37.2 nM	7.21
CC(CCc1ccccc1)NCC(O)COc1ccc(CCOCC2CCC2)cc1 (stereo not shown) [SL E.049]	–	–	0.01	1230 nM	5.11	–	–	–
CC(CCc1ccc(F)cc1)NCC(O)COc1ccc(CCOCC2CCC2)cc1 (stereo not shown) [SL E.059]	–	–	0.02	692 nM	5.54	–	–	–
CC(C)NCC(O)COc1ccc(CCS(=O)(=O)CC2CCC2)cc1 (stereo not shown) [SL E.060, 1-[4-(2-Cyclobutylmethylsulphonyl-ethyl)phenoxy]-3-isopropylamino-propan-2-ol]	–	–	1.0	–	–	1.9	11.7 nM	7.94
CC(C)NCC(O)COc1ccc(CCCOCC2CCC2)cc1 (stereo not shown) [SL E.061]	–	–	0.1	89.1 nM	7.02	0.2	–	–
CC(C)NCC(O)COc1ccc(COCC2CCC2)cc1 (stereo not shown) [SL E.080]	–	–	0.4	30.2 nM	7.44	0.6	–	–
CC(C)NCC(O)COc1ccc(OCCOCC2CCC2)cc1 (stereo not shown) [SL E.096, 1-[4-(2-cyclobutylmethoxyethoxy)-phenoxy]-3-isopropylamino-propan-2-ol]	–	–	2.2	5.13 nM	–	4.1	5.62 nM	–
COc1ccc(CCNCC(O)COc2ccc(CCOCC3CCC3)cc2)cc1OC (stereo not shown) [SL E.111]	–	–	0.1	74.1 nM	7.75	1.3	–	–
CC(C)NCC(O)COc1ccc(OCCS(=O)(=O)CC2CC2)cc1 (stereo not shown) [SL E.155, 1-[4-(2-Cyclopropylmethylsulphonyl-ethoxy)phenoxy]-3-isopropylamino-propan-2-ol]	–	–	0.08	141 nM	–	0.1	162 nM	–
CC(C)NCC(O)COc1ccc(OCCOCC2CCCC2)cc1 (stereo not shown) [SL E.203]	–	–	1.00	10.7 nM	–	4.17	5.5 nM	–

Reference: US4252984A, “Phenol ethers” (Synthelabo, priority 1975, dated 1981)
